Laboratory results from patent EP0598011B1, “ECDYSTEROID DEPENDENT REGULATION OF GENES IN MAMMALIAN CELLS” (GENENTECH, INC., priority 1991, dated 1993).

Biological target: T1, VXEc (Drosophila melanogaster, UniProt P34021)
T1 construct: expressed in transfected cells
T1 sequence (P34021 329-878): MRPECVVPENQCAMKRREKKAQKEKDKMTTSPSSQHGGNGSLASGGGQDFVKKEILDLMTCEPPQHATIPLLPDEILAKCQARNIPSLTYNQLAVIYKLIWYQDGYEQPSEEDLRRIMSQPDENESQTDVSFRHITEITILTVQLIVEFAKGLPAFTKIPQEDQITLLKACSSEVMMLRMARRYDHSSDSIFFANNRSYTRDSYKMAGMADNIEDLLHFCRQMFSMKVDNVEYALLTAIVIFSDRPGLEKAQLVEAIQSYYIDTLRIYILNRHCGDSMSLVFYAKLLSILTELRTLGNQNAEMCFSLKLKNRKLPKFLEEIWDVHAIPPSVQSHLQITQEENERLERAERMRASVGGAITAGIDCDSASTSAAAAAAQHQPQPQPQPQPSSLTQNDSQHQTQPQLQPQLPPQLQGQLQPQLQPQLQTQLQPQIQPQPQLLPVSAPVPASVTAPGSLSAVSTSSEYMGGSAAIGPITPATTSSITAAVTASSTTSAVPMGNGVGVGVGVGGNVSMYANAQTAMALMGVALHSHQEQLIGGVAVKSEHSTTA
Assay: Reporter OC-33CO lacking lex-operators with VXEc
Assay type: cell-based
Conditions: receptor VXEc, SD in parentheses
Excerpt: Finally, I determined if the activity of DHR23α fusion proteins could be further enhanced by inclusion of a potent viral transactivation domain. I constructed VGEc and VLxEc fusion genes by replacing a portion of the GR N-terminal activation domain in GGEc and GLxEc, respectively, with the herpes virus VP16 acidic activation domain (I. Sadowski et al., […]. 335, 563 [1988]; D. J. Cousens, R. Greaves, C. R. Coding, and P. O'Hare, EMBO J. 8, 2337 [1989]) (Fig. 4A). In transfected cells, these proteins accumulated to similar levels as derivatives lacking the VP16 activation domain (Fig. 4B). Both VGEc and VLxEc acted in an ecdysteroid-dependent fashion to induce activity of the appropriate reporter gene (Tables 1 and 2). However, the activity of VGEc and VLxEc was 5 and 10 fold greater than GGEc and GLxEc, respectively (M..A. Labow, S.B. Baim, T. Shenk, and A. J. Levine, Mol. and Cell. Biol. 10, 3343 [1990]). Thus, the DHR23α ligand-binding domain can be used to regulate the activities of viral, mammalian and bacterial DNA-binding or transactivation domains.
Illustrated in Table 2 is the transcriptional activation by receptor-LexA fusion proteins. […] The cells were incubated either with (+) or without (-) muristerone A. The fold induction was determined as described previously; the standard deviations are shown in parenthesis.

With `CC(C)CCC(O)[C@](C)(O)[C@H]1CC[C@@]2(O)C3=CC(=O)C4(O)CC(O)C(O)C[C@]4(C)[C@H]3C(O)C[C@]12C` (stereo partly shown) [muristerone A, 2,3,5,11,14,20,22-Heptahydroxy-7-cholesten-6-one] as the compound, how does the fold induction read?
Its fold induction is 1.0 (0.2) fold.
